Source: patent US9592221B2, “Antibacterial agents: aryl myxopyronin derivatives” (priority 2012, dated 2017)
Converted amounts (≈) assume the structure as drawn.

Tests used:
[1] = system: Francisella tularensis SCHU4; assay: microbe, parasite or virus in culture; assay type: cell-based; conditions: Francisella tularensis, SCHU4, read-out: MIC F. tularensis SCHU4
[2] = biological target: E. coli RNA polymerase σ^70 holoenzyme (Escherichia coli, UniProt P0A8T7+P0A8V2); assay: Fluorescence-detected RNA polymerase assay, E. coli RNA polymerase; assay type: biochemical; conditions: read-out: IC50 E. coli RNAP
E. coli RNA polymerase σ^70 holoenzyme, sequence (P0A8T7 whole entry): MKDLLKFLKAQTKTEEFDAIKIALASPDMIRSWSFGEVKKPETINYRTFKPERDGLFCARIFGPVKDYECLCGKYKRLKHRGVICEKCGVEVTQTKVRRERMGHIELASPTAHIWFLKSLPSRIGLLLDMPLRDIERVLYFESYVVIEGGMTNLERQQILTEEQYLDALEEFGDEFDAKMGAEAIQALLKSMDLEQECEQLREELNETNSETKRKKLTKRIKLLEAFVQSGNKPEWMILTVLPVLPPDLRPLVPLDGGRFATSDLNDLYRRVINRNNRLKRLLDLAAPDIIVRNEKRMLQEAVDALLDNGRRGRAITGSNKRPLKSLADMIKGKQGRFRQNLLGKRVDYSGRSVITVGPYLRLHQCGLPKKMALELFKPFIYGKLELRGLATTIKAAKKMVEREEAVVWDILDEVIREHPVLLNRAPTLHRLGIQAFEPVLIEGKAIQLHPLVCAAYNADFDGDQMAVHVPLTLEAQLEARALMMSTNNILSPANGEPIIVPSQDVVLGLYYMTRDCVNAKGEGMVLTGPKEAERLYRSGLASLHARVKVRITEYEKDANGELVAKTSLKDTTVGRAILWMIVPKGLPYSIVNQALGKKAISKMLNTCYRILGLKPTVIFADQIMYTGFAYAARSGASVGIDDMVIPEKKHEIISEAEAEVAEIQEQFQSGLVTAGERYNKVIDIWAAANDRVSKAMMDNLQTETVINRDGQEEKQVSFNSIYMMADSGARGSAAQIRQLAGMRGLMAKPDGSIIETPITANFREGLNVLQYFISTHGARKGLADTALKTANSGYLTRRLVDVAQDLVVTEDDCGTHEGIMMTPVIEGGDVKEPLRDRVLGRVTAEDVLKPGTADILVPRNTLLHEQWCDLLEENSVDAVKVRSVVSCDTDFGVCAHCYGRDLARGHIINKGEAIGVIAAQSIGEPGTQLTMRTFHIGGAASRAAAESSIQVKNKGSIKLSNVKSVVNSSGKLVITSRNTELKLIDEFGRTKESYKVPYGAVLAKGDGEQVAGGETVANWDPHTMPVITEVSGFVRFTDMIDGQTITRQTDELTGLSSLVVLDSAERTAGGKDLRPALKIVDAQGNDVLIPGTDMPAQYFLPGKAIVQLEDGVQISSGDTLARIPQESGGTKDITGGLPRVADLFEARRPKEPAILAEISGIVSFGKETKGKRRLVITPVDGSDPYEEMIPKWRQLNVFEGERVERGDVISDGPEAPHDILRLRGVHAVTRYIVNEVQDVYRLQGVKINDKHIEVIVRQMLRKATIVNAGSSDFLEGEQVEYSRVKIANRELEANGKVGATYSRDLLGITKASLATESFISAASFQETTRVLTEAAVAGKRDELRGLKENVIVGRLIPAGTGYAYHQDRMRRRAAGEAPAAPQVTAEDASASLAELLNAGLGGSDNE
E. coli RNA polymerase σ^70 holoenzyme, sequence (P0A800 whole entry, further chain): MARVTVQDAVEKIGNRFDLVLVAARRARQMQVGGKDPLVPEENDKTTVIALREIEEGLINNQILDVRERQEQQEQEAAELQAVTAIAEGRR
E. coli RNA polymerase σ^70 holoenzyme, sequence (P0A8V2 whole entry): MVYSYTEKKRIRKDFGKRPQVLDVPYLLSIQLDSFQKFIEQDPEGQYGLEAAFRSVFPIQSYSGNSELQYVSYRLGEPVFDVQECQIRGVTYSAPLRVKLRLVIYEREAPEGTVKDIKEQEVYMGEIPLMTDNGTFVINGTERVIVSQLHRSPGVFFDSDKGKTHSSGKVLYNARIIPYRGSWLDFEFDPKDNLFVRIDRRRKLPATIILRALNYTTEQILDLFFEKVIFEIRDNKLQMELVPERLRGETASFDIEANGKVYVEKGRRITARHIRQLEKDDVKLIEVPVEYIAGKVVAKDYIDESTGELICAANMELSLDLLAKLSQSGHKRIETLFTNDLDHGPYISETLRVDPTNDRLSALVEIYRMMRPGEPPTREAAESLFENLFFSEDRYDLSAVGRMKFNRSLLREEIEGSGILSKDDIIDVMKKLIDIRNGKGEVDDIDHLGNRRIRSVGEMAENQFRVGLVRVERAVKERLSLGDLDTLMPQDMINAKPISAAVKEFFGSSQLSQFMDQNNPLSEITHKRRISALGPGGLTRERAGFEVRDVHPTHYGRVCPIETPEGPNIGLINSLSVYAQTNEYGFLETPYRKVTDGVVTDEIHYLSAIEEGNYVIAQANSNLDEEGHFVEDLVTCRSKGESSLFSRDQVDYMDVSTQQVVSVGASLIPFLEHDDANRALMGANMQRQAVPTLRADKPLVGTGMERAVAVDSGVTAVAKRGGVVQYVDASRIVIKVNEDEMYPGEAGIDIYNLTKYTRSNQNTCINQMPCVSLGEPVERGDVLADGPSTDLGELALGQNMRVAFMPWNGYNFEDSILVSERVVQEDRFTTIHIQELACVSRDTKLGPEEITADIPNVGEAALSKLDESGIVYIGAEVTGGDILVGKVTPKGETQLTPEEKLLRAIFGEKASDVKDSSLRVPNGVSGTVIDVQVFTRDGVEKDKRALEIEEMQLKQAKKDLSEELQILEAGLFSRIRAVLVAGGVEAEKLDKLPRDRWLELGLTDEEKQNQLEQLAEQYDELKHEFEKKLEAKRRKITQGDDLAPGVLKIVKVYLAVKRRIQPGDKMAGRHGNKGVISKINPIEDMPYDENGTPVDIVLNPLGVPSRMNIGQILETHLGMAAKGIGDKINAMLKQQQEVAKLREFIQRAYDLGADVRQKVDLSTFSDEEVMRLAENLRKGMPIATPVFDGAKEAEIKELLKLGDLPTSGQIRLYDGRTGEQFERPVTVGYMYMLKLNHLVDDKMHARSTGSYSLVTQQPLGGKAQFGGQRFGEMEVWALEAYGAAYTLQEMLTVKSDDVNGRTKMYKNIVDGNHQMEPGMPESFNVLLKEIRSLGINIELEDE
E. coli RNA polymerase σ^70 holoenzyme, sequence (P00579 whole entry, further chain): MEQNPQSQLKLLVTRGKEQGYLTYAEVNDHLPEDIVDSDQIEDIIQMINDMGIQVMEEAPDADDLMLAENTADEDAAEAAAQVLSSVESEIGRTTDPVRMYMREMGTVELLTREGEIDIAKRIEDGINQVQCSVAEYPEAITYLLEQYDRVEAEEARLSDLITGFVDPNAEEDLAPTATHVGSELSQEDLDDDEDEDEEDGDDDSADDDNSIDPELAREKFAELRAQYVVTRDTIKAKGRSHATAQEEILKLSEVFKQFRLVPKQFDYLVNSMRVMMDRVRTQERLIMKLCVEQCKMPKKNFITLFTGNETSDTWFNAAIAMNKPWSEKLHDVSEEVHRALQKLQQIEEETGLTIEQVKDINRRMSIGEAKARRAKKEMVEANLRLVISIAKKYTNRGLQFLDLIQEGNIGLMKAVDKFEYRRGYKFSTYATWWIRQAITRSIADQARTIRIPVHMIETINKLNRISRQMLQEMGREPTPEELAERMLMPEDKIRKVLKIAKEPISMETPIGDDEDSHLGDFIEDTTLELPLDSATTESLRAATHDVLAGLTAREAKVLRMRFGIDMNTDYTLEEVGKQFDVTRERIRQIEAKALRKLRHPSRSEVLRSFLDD
E. coli RNA polymerase σ^70 holoenzyme, sequence (P0A7Z4 whole entry, further chain): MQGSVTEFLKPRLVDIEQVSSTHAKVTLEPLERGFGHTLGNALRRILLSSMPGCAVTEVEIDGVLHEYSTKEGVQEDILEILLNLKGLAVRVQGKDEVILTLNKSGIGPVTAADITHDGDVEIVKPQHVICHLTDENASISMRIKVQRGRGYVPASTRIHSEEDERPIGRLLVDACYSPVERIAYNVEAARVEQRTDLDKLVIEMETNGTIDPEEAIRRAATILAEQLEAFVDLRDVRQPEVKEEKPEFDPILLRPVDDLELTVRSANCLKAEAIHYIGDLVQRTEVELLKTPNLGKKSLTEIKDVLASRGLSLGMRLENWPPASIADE

Burkholderia mallei CHN7 = assay: microbe, parasite or virus in culture; assay type: cell-based; conditions: Burkholderia mallei, CHN7, read-out: MIC B. mallei CHN7
[3] = system: Staphylococcus aureus ATCC 12600; assay: MIC, spiral gradient endpoint assay, S. aureus ATCC 12600; assay type: cell-based; conditions: ATCC12600; Staphylococcus aureus ATCC 12600
[4] = system: Burkholderia pseudomallei Human/Blood/OH/US/1994; assay: microbe, parasite or virus in culture; assay type: cell-based; conditions: Burkholderia pseudomallei, read-out: MIC B. pseudomallei Human/Blood/OH
[5] = system: Acinetobacter baumannii ATCC 19606; assay: MIC, spiral gradient endpoint assay, A. baumannii; assay type: cell-based; conditions: ATCC19606; Acinetobacter baumannii ATCC 19606
[6] = system: Bacillus anthracis Vollum 1b; assay: microbe, parasite or virus in culture; assay type: cell-based; conditions: Bacillus anthracis, VOLLUM1B, read-out: MIC B. anthracis Vollum-1b
[7] = system: Escherichia coli D21f2tolC; assay: MIC, spiral gradient endpoint assay, E. coli D21f2tolC; assay type: cell-based; conditions: Escherichia coli, D21F2TOLC, read-out: MIC E. coli D21f2toIC
[8] = system: Mycobacterium tuberculosis H37Rv; assay: MIC, microplate Alamar Blue assay, M. tuberculosis; assay type: cell-based
Brucella melitensis 16M = assay: microbe, parasite or virus in culture; assay type: cell-based; conditions: Brucella melitensis, 16M, read-out: MIC B. melitensis 16M

COC(=O)N/C=C/CCC(C)c1cc(O)c(C(=O)C(C)=Cc2ccc(OCC(C)C)cc2)c(=O)o1 (mixture of isomers) [APY53, methyl (E)-5-(4-hydroxy-3-((E/Z)-3-(4-isobutoxyphenyl)-2-methacryloyl)-4-hydroxy-2-oxo-2H-pyran-6-yl)hex-1-enylcarbamate]
MIC [1]: 50 µg/mL | IC50 [2]: 2000 nM | MIC (Burkholderia mallei CHN7): > 50 µg/mL | MIC [3]: 2 µg/mL | MIC [4]: > 50 µg/mL | MIC [5]: > 40 µg/mL | MIC [6]: 3 µg/mL | MIC [7]: 0.4 µg/mL | MIC [8]: 6 µg/mL | MIC (Brucella melitensis 16M): 10 µg/mL

COC(=O)N/C=C/CCC(C)c1cc(O)c(C(=O)C(C)=Cc2ccc(OCC3CCCC3)cc2)c(=O)o1 (mixture of isomers) [APY52]
MIC [1]: 30 µg/mL | IC50 [2]: 2000 nM | MIC (Burkholderia mallei CHN7): 50 µg/mL | MIC [3]: 4 µg/mL | MIC [4]: > 50 µg/mL | MIC [5]: > 40 µg/mL | MIC [6]: 2 µg/mL | MIC [7]: 0.4 µg/mL | MIC [8]: 30 µg/mL | MIC (Brucella melitensis 16M): 3 µg/mL

COC(=O)N/C=C/CCC(C)c1cc(O)c(C(=O)C(C)=Cc2cnc(N3CCCCC3)s2)c(=O)o1 (stereo not shown) [APY142]
IC50 [2]: 600 nM | MIC [3]: 20 µg/mL (≈ 39.9 µM) | MIC [5]: > 40 µg/mL | MIC [7]: 1 µg/mL (≈ 1.99 µM)

COC(=O)N/C=C/CCC(C)c1cc(O)c(C(=O)C(C)=Cc2cc3ccc(CCC(F)(F)F)cc3s2)c(=O)o1 (mixture of isomers) [APY114, methyl ((1E)-5-(4-hydroxy-3-(2-methyl-3-(6-(3,3,3-trifluoropropyl)benzo[b]thiophen-2-yl)acryloyl)-2-oxo-2H-pyran-6-yl)hex-1-en-1-yl)carbamate]
IC50 [2]: 300 nM | MIC [3]: > 40 µg/mL | MIC [5]: > 40 µg/mL | MIC [7]: 0.2 µg/mL

COC(=O)N/C=C/CCC(C)c1cc(O)c(C(=O)C(C)=Cc2cccc(OCCC(C)C)c2)c(=O)o1 (mixture of isomers) [APY51, methyl (E)-5-(4-hydroxy-3-((E/Z)-3-(3-isopentyloxy)phenyl)-2-methacryloyl-2-oxo-2H-pyran-6-yl)hex-1-enylcarbamate]
IC50 [2]: 1000 nM | MIC [3]: > 40 µg/mL | MIC [5]: > 40 µg/mL | MIC [7]: 0.5 µg/mL

CCc1ccc(C=C(C)C(=O)c2c(O)cc(C(C)CC/C=C/NC(=O)OC)oc2=O)s1 (mixture of isomers) [APY64, methyl (E)-5-(5-((E/Z)-3-(5-ethylthiophen-2-yl)-2-methylacryloyl)-4-hydroxy-6-oxo-6H-pyran-2-yl)hex-1-enylcarbamate]
MIC [1]: 50 µg/mL | IC50 [2]: 200 nM | MIC (Burkholderia mallei CHN7): > 50 µg/mL | MIC [3]: 9 µg/mL | MIC [4]: > 50 µg/mL | MIC [5]: > 40 µg/mL | MIC [6]: 50 µg/mL | MIC [7]: 0.8 µg/mL | MIC [8]: 30 µg/mL | MIC (Brucella melitensis 16M): 10 µg/mL

COC(=O)N/C=C/CCC(C)c1cc(O)c(C(=O)C(C)=Cc2ccc(OCC3CCCO3)cc2)c(=O)o1 (mixture of isomers) [APY54, methyl (E)-5-(4-hydroxy-3-((E/Z)-2-methyl-3-(4-((tetrahydrofuran-2-yl)methoxy)phenyl)acryloyl)-2-oxo-2H-pyran-6-y)hex-1-enylcarbamate]
IC50 [2]: > 6000 nM | MIC [3]: > 40 µg/mL | MIC [5]: > 40 µg/mL | MIC [7]: 7 µg/mL

COC(=O)N/C=C/CCC(C)c1cc(O)c(C(=O)C(C)=Cc2cc3ccc(CCC(F)(F)F)cc3o2)c(=O)o1 (mixture of isomers) [APY112, methyl ((1E)-5-(4-hydroxy-3-(2-methyl-3-(6-(3,3,3-trifluoropropyl)benzofuran-2-yl)acryloyl)-2-oxo-2H-pyran-6-yl)hex-1-en-1-yl)carbamate]
IC50 [2]: 300 nM | MIC [3]: > 40 µg/mL | MIC [5]: > 40 µg/mL | MIC [7]: 0.2 µg/mL

CCCc1cn(C)c(C=C(C)C(=O)c2c(O)cc(C(C)CC/C=C/NC(=O)OC)oc2=O)n1 (mixture of isomers) [APY143, methyl ((1E)-5-(4-hydroxy-3-(2-methyl-3-(1-methyl-4-propyl-1H-imidazol-2-yl)acryloyl)-2-oxo-2H-pyran-6-yl)hex-1-en-1-yl)carbamate]
IC50 [2]: 1000 nM | MIC [3]: > 40 µg/mL | MIC [5]: > 40 µg/mL | MIC [7]: 10 µg/mL

COC(=O)N/C=C/CCC(C)c1cc(O)c(C(=O)C(C)=Cc2ccc(CCC(C)(C)C)s2)c(=O)o1 (mixture of isomers) [APY56, methyl (E)-5-(4-hydroxy-5-((E/Z)-2-methyl-3-(5-(3,3-dimethylbutyl)thiophen-2-yl)acryloyl)-6-oxo-6H-pyran-2-yl)hex-1-enylcarbamate]
MIC [1]: 6 µg/mL | IC50 [2]: 7 nM | MIC (Burkholderia mallei CHN7): 3 µg/mL | MIC [3]: 0.7 µg/mL | MIC [4]: 6 µg/mL | MIC [5]: 10 µg/mL | MIC [6]: 0.2 µg/mL | MIC [7]: 0.2 µg/mL | MIC [8]: 10 µg/mL | MIC (Brucella melitensis 16M): 3 µg/mL

COC(=O)N/C=C/CCC(C)c1cc(O)c(C(=O)C(C)=Cc2ccc(CCCCCC(F)(F)F)s2)c(=O)o1 (mixture of isomers) [APY82, methyl ((1E)-5-(4-hydroxy-3-(2-methyl-3-(5-(6,6,6-trifluorohexyl)thiophen-2-yl)acryloyl)-2-oxo-2H-pyran-6-yl)hex-1-en-1-yl)carbamate]
MIC [1]: 10 µg/mL | IC50 [2]: 5 nM | MIC (Burkholderia mallei CHN7): 6 µg/mL | MIC [3]: 10 µg/mL | MIC [4]: 6 µg/mL | MIC [5]: 20 µg/mL | MIC [6]: 3 µg/mL | MIC [7]: 0.07 µg/mL | MIC [8]: > 50 µg/mL | MIC (Brucella melitensis 16M): 2 µg/mL

COC(=O)N/C=C/CCC(C)c1cc(O)c(C(=O)C(C)=Cc2cc3ccc(CCC(C)C)cc3o2)c(=O)o1 (mixture of isomers) [APY111, methyl ((1E)-5-(4-hydroxy-3-(3-(6-isopentylbenzofuran-2-yl)-2-methylacryloyl)-2-oxo-2H-pyran-6-yl)hex-1-en-1-yl)carbamate]
IC50 [2]: 50 nM | MIC [3]: > 40 µg/mL | MIC [5]: > 40 µg/mL | MIC [7]: 0.3 µg/mL

CCc1ccc2cc(C=C(C)C(=O)c3c(O)cc(C(C)CC/C=C/NC(=O)OC)oc3=O)oc2c1 (mixture of isomers) [APY110, methyl ((1E)-5-(3-(3-(6-ethylbenzofuran-2-yl)-2-methylacryloyl)-4-hydroxy-2-oxo-2H-pyran-6-yl)hex-1-en-1-yl)carbamate]
IC50 [2]: 200 nM | MIC [3]: 8 µg/mL | MIC [5]: > 40 µg/mL | MIC [7]: 0.3 µg/mL | MIC [8]: 30 µg/mL

COC(=O)N/C=C/CCC(C)c1cc(O)c(C(=O)C(C)=Cc2ccc(OCCC(C)C)cc2)c(=O)o1 (mixture of isomers) [APY50, methyl (E)-5-(4-hydroxy-3-((E/Z)-3-(4-isopentyloxy)phenyl)-2-methacryloyl-2-oxo-2H-pyran-6-yl)hex-1-enylcarbamate]
IC50 [2]: > 6000 nM | MIC [3]: > 40 µg/mL | MIC [5]: > 40 µg/mL | MIC [7]: 2 µg/mL

COC(=O)N/C=C/CCC(C)c1cc(O)c(C(=O)C(C)=Cc2ccc(C)s2)c(=O)o1 (mixture of isomers) [APY69, methyl (E)-5-(4-hydroxy-5-((E/Z)-2-methyl-3-(5-methylthiophen-2-yl)acryloyl)-6-oxo-6H-pyran-2-yl)hex-1-enylcarbamate]
IC50 [2]: 1000 nM | MIC [3]: > 40 µg/mL | MIC [5]: > 40 µg/mL | MIC [7]: 7 µg/mL

COC(=O)N/C=C/CCC(C)c1cc(O)c(C(=O)C(C)=Cc2cc(CCC(F)(F)F)cn2C)c(=O)o1 (mixture of isomers) [APY135, methyl ((1E)-5-(4-hydroxy-3-(2-methyl-3-(1-methyl-4-(3,3,3-trifluoropropyl)-1H-pyrrol-2-yl)acryloyl)-2-oxo-2H-pyran-6-yl)hex-1-en-1-yl)carbamate]
IC50 [2]: 100 nM | MIC [3]: 10 µg/mL | MIC [5]: > 40 µg/mL | MIC [7]: 2 µg/mL

CCCCCc1ccc(C=C(C)C(=O)c2c(O)cc(C(C)CC/C=C/NC(=O)OC)oc2=O)cc1 (mixture of isomers) [APY72, methyl (E)-5-(4-hydroxy-5-((E/Z)-2-methyl-3-(4-pentylphenyl)acryloyl)-6-oxo-6H-pyran-2-yl)hex-1-enylcarbamate]
MIC [1]: 10 µg/mL | IC50 [2]: 200 nM | MIC (Burkholderia mallei CHN7): 10 µg/mL | MIC [3]: 2 µg/mL | MIC [4]: 50 µg/mL | MIC [5]: > 40 µg/mL | MIC [6]: 3 µg/mL | MIC [7]: 0.2 µg/mL | MIC (Brucella melitensis 16M): 2 µg/mL

COC(=O)N/C=C/CCC(C)c1cc(O)c(C(=O)C(C)=Cc2ccc(CCC3CCCCC3)s2)c(=O)o1 (mixture of isomers) [APY62, methyl (E)-5-(5-((E/Z)-3-(5-(2-cyclohexylethyl)thiophen-2-yl)-2-methylacryloyl)-4-hydroxy-6-oxo-6H-pyran-2-yl)hex-1-enylcarbamate]
IC50 [2]: 10 nM | MIC [3]: 2 µg/mL | MIC [5]: > 40 µg/mL | MIC [7]: 10 µg/mL

CCCc1ccc(C=C(C)C(=O)c2c(O)cc(C(C)CC/C=C/NC(=O)OC)oc2=O)cc1 (mixture of isomers) [APY71, methyl (E)-5-(4-hydroxy-5-((E/Z)-2-methyl-3-(4-propylphenyl)acryloyl)-6-oxo-6H-pyran-2-yl)hex-1-enylcarbamate]
MIC [1]: > 50 µg/mL | IC50 [2]: 400 nM | MIC (Burkholderia mallei CHN7): > 50 µg/mL | MIC [3]: 4 µg/mL | MIC [4]: > 50 µg/mL | MIC [5]: > 40 µg/mL | MIC [6]: 30 µg/mL | MIC [7]: 0.5 µg/mL | MIC (Brucella melitensis 16M): 10 µg/mL

COC(=O)N/C=C/CCC(C)c1cc(O)c(C(=O)C(C)=Cc2ccc(C)cc2)c(=O)o1 (mixture of isomers) [APY57, methyl (E)-5-(4-hydroxy-5-((E/Z)-2-methyl-3-p-tolylacryloyl)-6-oxo-6H-pyran-2-yl)hex-1-enylcarbamate]
IC50 [2]: > 6000 nM | MIC [3]: > 40 µg/mL | MIC [5]: > 40 µg/mL | MIC [7]: 1 µg/mL
